In patent publication US20100093702A1, “METHYLENE AMINES OF THIENO[2,3-d]PYRIMIDINE AND THEIR USE AS ADENOSINE A2a RECEPTOR ANTAGONISTS” (priority 2008, published 2010):

Key:
[1] = target: T1, human adenosine A2a receptor (Homo sapiens, UniProt P29274); assay: Adenosine A2a Receptor Functional Assay (A2AGAL2); format: cell-based; conditions: CHO-K1 cells, cAMP inducible beta-galactosidase reporter, 15 nM NECA agonist challenge
T1 construct: expressed in transfected cells; host or cells: CHO-K1
Protocol: Adenosine A2a Receptor Functional Assay (A2AGAL2)
To initiate the functional assay, cryopreserved CHO-K1 cells overexpressing the human adenosine A2a receptor and containing a cAMP inducible beta-galactosidase reporter gene were thawed, centrifuged, DMSO containing media removed, and then seeded with fresh culture media into clear 384-well tissue culture treated plates (BD #353961) at a concentration of 10K cells/well. Prior to assay, these plates were cultured for two days at 37° C., 5% CO2, 90% Rh. On the day of the functional assay, culture media was removed and replaced with 45 uL assay medium (Hams/F-12 Modified (Mediatech # 10-080CV) supplemented w/0.1% BSA). Test compounds were diluted and 11 point curves created at a 1000× concentration in 100% DMSO. Immediately after addition of assay media to the cell plates, 50 nL of the appropriate test compound antagonist or agonist control curves were added to cell plates using a Cartesian Hummingbird. Compound curves were allowed to incubate at room temperature on cell plates for approximately 15 minutes before addition of a 15 nM NECA (Sigma E2387) agonist challenge (5 uL volume). A control curve of NECA, a DMSO/Media control, and a single dose of Forskolin (Sigma F3917) were also included on each plate. After additions, cell plates were allowed to incubate at 37° C., 5% CO2, 90% Rh for 5.5-6 hours. After incubation, media was removed, and cell plates were washed 1×50 uL with DPBS w/o Ca & Mg (Mediatech 21-031-CV). Into dry wells, 20 uL of 1× Reporter Lysis Buffer (Promega E3971 (diluted in dH2O from 5× stock)) was added to each well and plates frozen at −20° C. overnight. For β-galactosidase enzyme calorimetric assay, plates were thawed out at room temperature and 20 μL 2× assay buffer (Promega) was added to each well. Color was allowed to develop at 37° C., 5% CO2, 90% Rh for 1-1.5 h or until reasonable signal appeared. The calorimetric reaction was stopped with the addition of 60 μL/well 1M sodium carbonate. Plates were counted at 405 nm on a SpectraMax Microplate Reader (Molecular Devices). Data was analyzed in Microsoft Excel and IC/EC50 curves were fit using a standardized macro.

[2] = target: T2, human adenosine A1 receptor (Homo sapiens, UniProt P30542); assay: Adenosine A1 Receptor Functional Assay (A1GAL2); format: cell-based; conditions: CHO-K1 cells, cAMP inducible beta-galactosidase reporter, 4 nM r-PIA/1 uM Forskolin challenge
T2 construct: expressed in transfected cells; host or cells: CHO-K1
T2 sequence (P30542 1-326): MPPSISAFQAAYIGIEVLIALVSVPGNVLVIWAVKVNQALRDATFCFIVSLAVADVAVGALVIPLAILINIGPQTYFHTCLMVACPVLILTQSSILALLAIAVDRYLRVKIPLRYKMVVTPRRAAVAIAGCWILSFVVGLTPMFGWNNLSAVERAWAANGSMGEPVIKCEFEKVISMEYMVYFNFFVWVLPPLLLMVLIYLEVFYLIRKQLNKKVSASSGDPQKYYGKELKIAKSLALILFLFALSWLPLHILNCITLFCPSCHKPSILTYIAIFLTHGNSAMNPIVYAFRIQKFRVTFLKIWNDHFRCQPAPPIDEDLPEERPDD
Protocol: Adenosine A1 Receptor Functional Assay (A1GAL2)
To initiate the functional assay, cryopreserved CHO-K1 cells overexpressing the human adenosine A1 receptor and containing a cAMP inducible beta-galactosidase reporter gene were thawed, centrifuged, DMSO containing media removed, and then seeded with fresh culture media into clear 384-well tissue culture treated plates (BD #353961) at a concentration of 10K cells/well. Prior to assay, these plates were cultured for two days at 37° C., 5% CO2, 90% Rh. On the day of the functional assay, culture media was removed and replaced with 45 uL assay medium (Hams/F-12 Modified (Mediatech # 10-080CV) supplemented w/0.1% BSA). Test compounds were diluted and 11 point curves created at a 1000× concentration in 100% DMSO. Immediately after addition of assay media to the cell plates, […] of the appropriate test compound antagonist or agonist control curves were added to cell plates using a Cartesian Hummingbird. Compound curves were allowed to incubate at room temperature on cell plates for approximately 15 minutes before addition of a 4 nM r-PIA (Sigma P4532)/1 uM Forskolin (Sigma F3917) agonist challenge (5 uL volume). A control curve of r-PIA in 1 uM Forskolin, a DMSO/Media control, and a single dose of Forskolin were also included on each plate. After additions, cell plates were allowed to incubate at 37° C., 5% CO2, 90% Rh for 5.5-6 hours. After incubation, media was removed, and cell plates were washed 1×50 uL with DPBS w/o Ca & Mg (Mediatech 21-031-CV).
Into dry wells, 20 uL of 1× Reporter Lysis Buffer (Promega E3971 (diluted in dH2O from 5× stock)) was added to each well and plates frozen at −20° C. overnight. For β-galactosidase enzyme calorimetric assay, plates were thawed out at room temperature and 20 μL 2× assay buffer (Promega) was added to each well. Color was allowed to develop at 37° C., 5% CO2, 90% Rh for 1-1.5 h or until reasonable signal appeared. The calorimetric reaction was stopped with the addition of 60 μL/well 1M sodium carbonate. Plates were counted at 405 nm on a SpectraMax Microplate Reader (Molecular Devices). Data was analyzed in Microsoft Excel and IC/EC50 curves were fit using a standardized macro.

T1 sequence (P29274 whole entry): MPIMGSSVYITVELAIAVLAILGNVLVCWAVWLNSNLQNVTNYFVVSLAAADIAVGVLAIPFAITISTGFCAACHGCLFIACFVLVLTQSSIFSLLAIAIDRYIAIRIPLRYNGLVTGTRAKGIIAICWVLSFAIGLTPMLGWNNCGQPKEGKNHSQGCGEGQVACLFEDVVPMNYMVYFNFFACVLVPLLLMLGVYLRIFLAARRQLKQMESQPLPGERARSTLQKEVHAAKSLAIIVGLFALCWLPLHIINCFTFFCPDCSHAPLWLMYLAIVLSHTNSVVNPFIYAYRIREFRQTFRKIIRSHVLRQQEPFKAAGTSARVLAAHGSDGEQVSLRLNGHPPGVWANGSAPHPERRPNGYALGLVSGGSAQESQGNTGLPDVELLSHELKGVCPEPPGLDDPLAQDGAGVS

Compound	Ki [1]	Ki [2]
Nc1nc(-c2ncco2)nc2sc(CN3CCOCC3)cc12 [Example 75, 6-Morpholin-4-ylmethyl-2-oxazol-2-yl-thieno[2,3-d]pyrimidin-4-ylamine]	356 nM	3250 nM
CC(C)c1ccc(-c2nc(N)c3cc(CN4CCOCC4)sc3n2)o1 [Example 21, 2-(5-Isopropyl-furan-2-yl)-6-morpholin-4-ylmethyl-thieno[2,3-d]pyrimidin-4-ylamine]	> 1360 nM	> 594 nM
Nc1nc(C2CC2)nc2sc(CN3CCCC3)cc12 [Example 43, 2-Cyclopropyl-6-pyrrolidin-1-ylmethyl-thieno[2,3-d]pyrimidin-4-ylamine]	404 nM	> 10000 nM
COc1cccc(-c2nc(N)c3cc(CN4CCC(F)CC4)sc3n2)c1 [Example 71, 6-(4-Fluoro-piperidin-1-ylmethyl)-2-(3-methoxy-phenyl)-thieno[2,3-d]pyrimidin-4-ylamine]	303 nM	3220 nM
Nc1nc(-c2ccc[nH]2)nc2sc(CN3CCC(F)CC3)cc12 [Example 81, 6-(4-Fluoro-piperidin-1-ylmethyl)-2-(1H-pyrrol-2-yl)-thieno[2,3-d]pyrimidin-4-ylamine]	795 nM	3890 nM
Nc1nc(-c2ccc(C3CC3)o2)nc2sc(CN3CCOCC3)cc12 [Example 22, 2-(5-Cyclopropyl-furan-2-yl)-6-morpholin-4-ylmethyl-thieno[2,3-d]pyrimidin-4-ylamine]	958 nM	> 1070 nM
Nc1nc(-c2ccc(C(F)F)o2)nc2sc(CN3CCC(F)(F)CC3)cc12 [Example 99, 2-(5-Difluoromethyl-furan-2-yl)-6-(4,4-difluoro-piperidin-1-ylmethyl)-thieno[2,3-d]pyrimidin-4-ylamine]	610 nM	17800 nM
Nc1nc(-c2ccnc(Cl)c2)nc2sc(CN3CCCCC3)cc12 [Example 104, 2-(2-Chloro-pyridin-4-yl)-6-piperidin-1-ylmethyl-thieno[2,3-d]pyrimidin-4-ylamine]	691 nM	3860 nM
COc1cccc(-c2nc(N)c3cc(CN4CCOCC4)sc3n2)c1 [Example 84, 2-(3-Methoxy-phenyl)-6-morpholin-4-ylmethyl-thieno[2,3-d]pyrimidin-4-ylamine]	373 nM	2990 nM
CC(C)(C)c1ccc(-c2nc(N)c3cc(CN4CCOCC4)sc3n2)s1 [Example 14, 2-(5-tert-Butyl-thiophen-2-yl)-6-morpholin-4-ylmethyl-thieno[2,3-d]pyrimidin-4-ylamine]	> 2340 nM	> 927 nM
N#Cc1cncc(-c2nc(N)c3cc(CN4CCC(F)CC4)sc3n2)c1 [Example 87, 5-[4-Amino-6-(4-fluoro-piperidin-1-ylmethyl)-thieno[2,3-d]pyrimidin-2-yl]-nicotinonitrile]	6620 nM	> 10000 nM
N#Cc1ccc(-c2nc(N)c3cc(CN4CCC(F)CC4)sc3n2)cc1 [Example 66, 4-[4-Amino-6-(4-fluoro-piperidin-1-ylmethyl)-thieno[2,3-d]pyrimidin-2-yl]-benzonitrile]	1390 nM	8430 nM

The next compounds have a lower Ki [1] than those just listed; values first:

Ki [1]	Ki [2]	Compound
245 nM	2730 nM	Nc1nc(-c2nccs2)nc2sc(CN3CCOCC3)cc12 [Example 25, 6-Morpholin-4-ylmethyl-2-thiazol-2-yl-thieno[2,3-d]pyrimidin-4-ylamine]
208 nM	> 927 nM	Cc1csc(-c2nc(N)c3cc(CN4CCOCC4)sc3n2)n1 [Example 15, 2-(4-Methyl-thiazol-2-yl)-6-morpholin-4-ylmethyl-thieno[2,3-d]pyrimidin-4-ylamine]
150 nM	1070 nM	C[C@@H]1CN(Cc2cc3c(N)nc(-c4cccc(C#N)c4)nc3s2)C[C@H](C)O1 [Example 17, 3-[4-Amino-6-(2,6-dimethyl-morpholin-4-ylmethyl)-thieno[2,3-d]pyrimidin-2-yl]-benzonitrile]
117 nM	785 nM	Nc1nc(-c2cccc(Cl)c2)nc2sc(CN3CCOCC3)cc12 [Example 49, 2-(3-Chloro-phenyl)-6-morpholin-4-ylmethyl-thieno[2,3-d]pyrimidin-4-ylamine]
114 nM	333 nM	C[C@@H]1CCC[C@H](C)N1Cc1cc2c(N)nc(-c3ccc(C4CC4)o3)nc2s1 [Example 12, 2-(5-Cyclopropyl-furan-2-yl)-6-(2,6-dimethyl-piperidin-1-ylmethyl)-thieno[2,3-d]pyrimidin-4-ylamine]
91.3 nM	1910 nM	N#Cc1ccc(-c2nc(N)c3cc(CN4CCC(F)CC4)sc3n2)s1 [Example 72, 5-[4-Amino-6-(4-fluoro-piperidin-1-ylmethyl)-thieno[2,3-d]pyrimidin-2-yl]-thiophene-2-carbonitrile]
89.4 nM	297 nM	Cc1csc(-c2nc(N)c3cc(CN4[C@H](C)CCC[C@@H]4C)sc3n2)n1 [Example 9, 6-(2,6-Dimethyl-piperidin-1-ylmethyl)-2-(4-methyl-thiazol-2-yl)-thieno[2,3-d]pyrimidin-4-ylamine]
42.5 nM	2100 nM	Nc1nc(-c2ccc(C(F)F)o2)nc2sc(CN3CCCC(F)(F)C3)cc12 [Example 101, 2-(5-Difluoromethyl-furan-2-yl)-6-(3,3-difluoro-piperidin-1-ylmethyl)-thieno[2,3-d]pyrimidin-4-ylamine]
42.4 nM	1670 nM	Nc1nc(-c2ccc(C(F)F)o2)nc2sc(CN3CCC(F)CC3)cc12 [Example 100, 2-(5-Difluoromethyl-furan-2-yl)-6-(4-fluoro-piperidin-1-ylmethyl)-thieno[2,3-d]pyrimidin-4-ylamine]
24.9 nM	194 nM	CCc1ccc(-c2nc(N)c3cc(CN4[C@H](C)CCC[C@@H]4C)sc3n2)o1 [Example 11, 6-(2,6-Dimethyl-piperidin-1-ylmethyl)-2-(5-ethyl-furan-2-yl)-thieno[2,3-d]pyrimidin-4-ylamine]
17.3 nM	144 nM	CC(C)c1ccc(-c2nc(N)c3cc(CN4[C@H](C)CCC[C@@H]4C)sc3n2)o1 [Example 10, 6-(2,6-Dimethyl-piperidin-1-ylmethyl)-2-(5-isopropyl-furan-2-yl)-thieno[2,3-d]pyrimidin-4-ylamine]
12 nM	39.6 nM	C[C@@H]1CCC[C@H](C)N1Cc1cc2c(N)nc(-c3ccc(Br)o3)nc2s1 [Example 19, 2-(5-Bromo-furan-2-yl)-6-(2,6-dimethyl-piperidin-1-ylmethyl)-thieno[2,3-d]pyrimidin-4-ylamine]
